According to patent US20150011542A1, “Methods of Treating Adverse Intestinal Effects of Non-Steroidal Anti-Inflammatory Drugs” (University of Connecticut, priority 2012, published 2015):
Entries after “also recorded” stand apart in the source; their conditions may differ.

What was measured:
[1] = cited from earlier work
E. coli β-glucuronidase = biological target: T1, E. coli β-glucuronidase (Escherichia coli, UniProt P05804); experiment: Inhibition of E. coli β-glucuronidase cleavage of diclofenac 1-β-O-acyl glucuronide (HPLC-UV of DCF product); type: biochemical
T1 construct: made in house
T1 sequence (P05804 whole entry): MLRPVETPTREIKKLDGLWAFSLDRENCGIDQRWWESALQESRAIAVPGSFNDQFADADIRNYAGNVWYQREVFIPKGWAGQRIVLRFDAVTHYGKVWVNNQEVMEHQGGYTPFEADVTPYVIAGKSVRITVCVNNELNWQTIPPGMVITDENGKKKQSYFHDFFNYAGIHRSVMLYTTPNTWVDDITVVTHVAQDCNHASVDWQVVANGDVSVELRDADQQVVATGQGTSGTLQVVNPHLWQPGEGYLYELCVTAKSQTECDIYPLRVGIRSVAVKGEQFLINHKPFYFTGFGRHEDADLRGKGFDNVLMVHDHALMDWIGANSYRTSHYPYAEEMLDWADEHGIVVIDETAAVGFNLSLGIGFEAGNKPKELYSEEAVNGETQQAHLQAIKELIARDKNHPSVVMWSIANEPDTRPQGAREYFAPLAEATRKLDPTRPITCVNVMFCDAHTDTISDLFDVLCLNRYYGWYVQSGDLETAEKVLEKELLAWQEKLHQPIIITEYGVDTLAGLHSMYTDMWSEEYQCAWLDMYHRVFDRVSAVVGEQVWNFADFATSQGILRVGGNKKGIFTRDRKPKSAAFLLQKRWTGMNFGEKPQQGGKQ

[2] = humans, cited from earlier work
[3] = mouse, in vivo, ip, 60 mg/kg
[4] = test system: DCF-induced small intestinal ulceration; experiment: Diclofenac-induced small intestinal ulceration in mice (NBT staining, morphometry, histopathology); type: in vivo
Description: Male C57BL/6J mice were obtained from The Jackson Laboratory (Bar Harbor, Me.). The mice were acclimatized for three weeks before the experiments and were 10-12 weeks of age at the start of the experiments. The animals were kept on a 14:10-hour light:dark cycle. They received mouse chow (Teklad Global Rodent Diet, Harlan Laboratories, Boston, Mass.) and water ad libitum. All studies were approved by the Institutional Animal Care and Use Committee of the University of Connecticut. […] All animals were treated at five hours before the start of the dark cycle. […] Control animals received methyl cellulose and/or Solutol HS-15.
(§1) Enteropathy was assessed and graded as described previously (Ramirez-Alcantara et al., Am. J. Physiol. (Gastrointest. Liver Physiol.), 297:G990-G998 (2009)). Briefly, mice were sacrificed by CO2 inhalation at 18 hours post-DCF (when the development of mucosal injury was maximal). A midline incision was made and blood was obtained via cardiac puncture. Serum was prepared and frozen at −80° C. until use for analysis. The entire small intestine (from the gastroduodenal junction to the ileocecal junction) was removed and opened longitudinally along the anti-mesenteric side. The tissue was rinsed in cold PBS and incubated for 15 minutes in 1 mM nitroblue tetrazolium (NBT) solution containing 16 mM HEPES-NaOH, 125 mM NaCl buffer, 3.5 mM KCl, and 10 mM glucose. Next, the tissues were fixed in 10% zinc formalin for 24 hours, washed, and transferred to 70% ethanol. The intestine was metrically divided into four quartiles of equal length and evaluated at 10× magnification for quantitative and qualitative analysis of mucosal injury, and the lesions were assigned to the respective quartiles. The following scoring system was used: 0, no apparent lesions; 1, small erosions or ulcers (<0 1 mm); 2, medium ulcers (0.1-0.8 mm); 3, large confluent ulcers (>0.8 mm) In addition, the total area of the lesions was quantified by Image J software. The formalin-fixed tissue was embedded in paraffin, and 5-μm sections were stained with hematoxylin/eosin for histopathological evaluation. Serum activity of alkaline phosphatase (ALP) was measured with a kinetic colorimetric kit (BioAssay Systems, Hayward, Calif.).

in vivo = settings: male, C57BL/6, mouse, 60 mg/kg
[5] = Pharmacokinetic profiling of diclofenac in mice with or without Inh-1 pretreatment; settings: male, C57BL/6, mouse, in vivo, ip, 60 mg/kg
[6] = test system: serum alkaline phosphatase (ALP) activity; experiment: Serum alkaline phosphatase activity as biomarker of enteropathy; type: in vivo, mice; settings: Inh-1 pretreatment; 18 h post-DCF
Protocol: as §1, with “(Ramirez-[…]” for “(Ramirez-Alcantara”, “297:[…]-[…]” for “297:G990-G998”, “-80°” for “−80°”, “Next, the tissues were fixed in 10% zinc formalin for 24 hours, washed, and transferred to 70% ethanol.” left out, “The following scoring system was used: 0, no apparent lesions; 1, small erosions or ulcers (<0 1 mm); 2, medium ulcers (0.1-0.8 mm); 3, large confluent ulcers (>0.8 mm) In addition, the total area of the lesions was quantified by Image J software.” left out

SMILES: O=C(Cc1ccccc1Nc1c(Cl)cccc1Cl)O[C@@H]1O[C@H](C(=O)O)[C@@H](O)[C@H](O)[C@H]1O [DCF-AG, diclofenac 1-β-O-acyl glucuronide]
- amount of biliary DCF-AG relative to parent DCF ([1]; gallbladder-cannulated mice): 117 fold
- amount of biliary DCF-AG relative to ring-hydroxylated DCF ([1]; gallbladder-cannulated mice): 22 fold
- amount of DCF-AG in bile ([1]; mice): approximately 4 % of the dose
- conversion of DCF-AG to its aglycone by purified enzyme (substrate) (E. coli β-glucuronidase; various concentrations, data not shown): converted DCF-AG (various concentrations) to its aglycone

SMILES: O=C(O)Cc1ccccc1Nc1c(Cl)cccc1Cl [Diclofenac, diclofenac]
- [14C]-DCF equivalents appearing in bile ([1]; during 60 minutes after intravenous 5 mg/kg in mice): 42%
- total DCF clearance in the form of glucuronides ([2]; including AGs of 4′-hydroxy-DCF): approximately 75%
- DCF excreted via bile ([2]; initial studies): 10-20%
- apparent Cmax [3]: high micromolar range
- small intestinal ulceration caused by DCF alone ([4]; DCF 60 mg/kg ip, single dose, 18 h): developed typical nitroblue tetrazolium-(NBT-) positive areas of ulceration in the jejunum and ileum
- Tmax (in vivo): 9.6 min
- AUC(0-t) (in vivo; ip): 208 µg·h/mL
- Cmax (in vivo; ip): 265 µg/mL
- Tmax (in vivo; ip): 10 min
- half-life [5]: 169 min

SMILES: CCOc1ccc(NC(=S)N(CCO)Cc2cc3cc(C)cc(C)c3[nH]c2=O)cc1 [Inh-1, ((6,8-dimethyl-2-oxo-1,2-dihydroquinolin-3-yl)methyl)-3-(4-ethoxyphenyl)-1-(2-hydroxyethyl)thiourea]
- inhibition of product (free DCF) formation (E. coli β-glucuronidase; increasing Inh-1 concentrations, DCF-AG 4 mM, FIG. 1B): concentration-dependent inhibition of product formation
- inhibition at 100 µM (E. coli β-glucuronidase; read-out: inhibition of release of free DCF from DCF-AG): > 90%
- ulcer size and number, quartiles 3 and 4 ([4]; Inh-1 10 μg/mouse po b.i.d. x2 days before DCF 60 mg/kg ip, 18 h post-DCF): greatly reduced both in size and number
- histopathology: ulcers with loss of villi and inflammatory response ([4]; Inh-1 pretreatment plus DCF 60 mg/kg ip): largely prevented these changes
- NBT-positive areas of ulceration, macroscopic ([4]; Inh-1 pretreatment plus DCF 60 mg/kg ip, jejunum, 18 h): absence of any large ulceration; also recorded: only few isolated and small NBT-positive areas
- protection from DCF-induced acute small intestinal injury ([4]; mice, overall conclusion): significant protection
- DCF-associated decrease in serum alkaline phosphatase (ALP) activity [6]: largely prevented
